Experimental data published in patent US11357779B2 (G1 Therapeutics, Inc., priority 2018, dated 2022).
Read-outs that look alike come from different tables or passages of the source.

Assay: Plasma concentration versus time of Compound I and metabolite Compound III in patients dosed QD or BID with Form B of Compound II plus fulvestrant
Type: in vivo, human
Details: human, plasma, oral
Description: Patients were enrolled into 1 of 2 parallel, independently operating, dose-escalation dosing cohorts with Form B of Compound II administered continuously either once daily (QD) or twice daily (BID) with food with fixed-dose fulvestrant (intramuscularly every 14 days for the first three injections and then every 28 days). Pre- or perimenopausal patients also received goserelin for the duration of study treatment. A […] agonist was started at least 28 days before the first dose of Form B, and those patients who were taking another LHRH agonist were switched to goserelin on Day 1. Patients were split into […] cohorts providing once a day (QD) dosing of 200 mg, 300 mg, 400 mg, 500 mg, or 650 mg of Form B, or twice a day (BID) dosing of 100 mg, 150 mg, or 200 mg of Form B. The second dose in BID cohorts was not administered in the evening until at least 12 hours after the initial morning dose of Form B. The dosing cohorts for Form B of Compound II are provided in Table 1.
Blood samples were collected at the following time points relative to the morning dose of Form B at Day 1 and at Day 29: pre-dose (0 hour) and 1, 2, 3, 4, 6, 8, 10, 12 (prior to the evening dose in the BID cohorts), and 24 (prior to the next day's morning dose) hours after dosing. A 5-minute time window was allowed for samples collected between the predose and 3 hours after Form B dosing. A 15-minute window was allowed for samples collected between 4 to 12 hours after Form B dosing. A 1-hour window was allowed for the sample collected 24 hours after Form B dosing. Blood samples for Compound I PK trough levels were collected pre-dose at Day 8, Day 15, and Day 22 prior to the morning administration of Compound I. Plasma concentrations of Compound I and its metabolite, Compound III, were measured using validated methods.
Analysis of plasma concentration versus time data for calculation of standard pharmacokinetic (PK) parameters following oral administration was conducted using Phoenix WinNonlin version 6.3 using actual blood sampling times.

Question: With `CC(C)N1CCN(c2ccc(Nc3ncc4cc5n(c4n3)C3(CCCCC3)CNC5=O)nc2)CC1` [Compound I, 2′-((5-(4-isopropylpiperazin-1-yl)pyridin-2-yl)amino)-7′,8′-dihydro-6′H-spiro[cyclohexane-1,9′-pyrazino[1′,2′:1,5]pyrrolo[2,3-d]pyrimidin]-6′-one] as the compound, how does the concentration at 3 h (200 mg, 200 mg QD of Form B, Day 29, 3.0 h, Median, read-out: Compound I Concentration) read?
Answer: 11.8 ng/mL

Question: What about the concentration at 4 h (200 mg, 200 mg QD of Form B, Day 29, 4.0 h, Mean, read-out: Compound I Concentration) of the same compound?
Answer: 17.5 ng/mL

Question: And the concentration at 4 h (200 mg, 200 mg QD of Form B, Day 29, 4.0 h, Median, read-out: Compound I Concentration)?
Answer: 18.8 ng/mL

Question: And the concentration at 6 h (200 mg, 200 mg QD of Form B, Day 29, 6.0 h, Mean, read-out: Compound I Concentration)?
Answer: 18.5 ng/mL

Question: What about the concentration at 6 h (200 mg, 200 mg QD of Form B, Day 29, 6.0 h, Median, read-out: Compound I Concentration) of the same compound?
Answer: 17.9 ng/mL

Question: And the concentration at 8 h (200 mg, 200 mg QD of Form B, Day 29, 8.0 h, Mean, read-out: Compound I Concentration)?
Answer: 14.6 ng/mL

Question: What about the concentration at 8 h (200 mg, 200 mg QD of Form B, Day 29, 8.0 h, Median, read-out: Compound I Concentration) of the same compound?
Answer: 12.1 ng/mL

Question: And the concentration at 10 h (200 mg, 200 mg QD of Form B, Day 29, 10.0 h, Mean, read-out: Compound I Concentration)?
Answer: 11.1 ng/mL

Question: And the concentration at 10 h (200 mg, 200 mg QD of Form B, Day 29, 10.0 h, Median, read-out: Compound I Concentration)?
Answer: 8.7 ng/mL

Question: What about the concentration at 12 h (200 mg, 200 mg QD of Form B, Day 29, 12.0 h, Mean, read-out: Compound I Concentration) of the same compound?
Answer: 8.46 ng/mL

Question: And the concentration at 12 h (200 mg, 200 mg QD of Form B, Day 29, 12.0 h, Median, read-out: Compound I Concentration)?
Answer: 8.32 ng/mL

Question: And the concentration at 24 h (200 mg, 200 mg QD of Form B, Day 29, […], Mean, read-out: Compound I Concentration)?
Answer: 6.01 ng/mL

Question: What about the concentration at 24 h (200 mg, 200 mg QD of Form B, Day 29, […], Median, read-out: Compound I Concentration) of the same compound?
Answer: 4.9 ng/mL

Question: And the concentration at 0 h (200 mg, Cohort 8, 200 mg BID of Form B, Day 29, 0.0 h, read-out: Compound I Concentration, Mean)?
Answer: 9.74 ng/mL

Question: And the concentration at 0 h (200 mg, Cohort 8, 200 mg BID of Form B, Day 29, 0.0 h, read-out: Compound I Concentration, Min)?
Answer: 5.47 ng/mL

Question: And the concentration at 1 h (200 mg, Cohort 8, 200 mg BID of Form B, Day 29, 1.0 h, read-out: Compound I Concentration, Mean)?
Answer: 9.23 ng/mL

Question: What about the concentration at 1 h (200 mg, Cohort 8, 200 mg BID of Form B, Day 29, 1.0 h, read-out: Compound I Concentration, Min) of the same compound?
Answer: 5.1 ng/mL

Question: And the concentration at 2 h (200 mg, Cohort 8, 200 mg BID of Form B, Day 29, 2.0 h, read-out: Compound I Concentration, Mean)?
Answer: 12 ng/mL

Question: And the concentration at 2 h (200 mg, Cohort 8, 200 mg BID of Form B, Day 29, 2.0 h, read-out: Compound I Concentration, Min)?
Answer: 5.56 ng/mL

Question: What about the concentration at 3 h (200 mg, Cohort 8, 200 mg BID of Form B, Day 29, 3.0 h, read-out: Compound I Concentration, Mean) of the same compound?
Answer: 15.2 ng/mL

Question: What about the concentration at 3 h (200 mg, Cohort 8, 200 mg BID of Form B, Day 29, 3.0 h, read-out: Compound I Concentration, Min) of the same compound?
Answer: 7.49 ng/mL

Question: And the concentration at 4 h (200 mg, Cohort 8, 200 mg BID of Form B, Day 29, 4.0 h, read-out: Compound I Concentration, Mean)?
Answer: 21.1 ng/mL

Question: And the concentration at 4 h (200 mg, Cohort 8, 200 mg BID of Form B, Day 29, 4.0 h, read-out: Compound I Concentration, Min)?
Answer: 7.69 ng/mL

Question: What about the concentration at 6 h (200 mg, Cohort 8, 200 mg BID of Form B, Day 29, 6.0 h, read-out: Compound I Concentration, Max) of the same compound?
Answer: 28.1 ng/mL

Question: And the concentration at 6 h (200 mg, Cohort 8, 200 mg BID of Form B, Day 29, 6.0 h, read-out: Compound I Concentration, Mean)?
Answer: 19 ng/mL

Question: What about the concentration at 6 h (200 mg, Cohort 8, 200 mg BID of Form B, Day 29, 6.0 h, read-out: Compound I Concentration, Min) of the same compound?
Answer: 7.6 ng/mL

Question: And the concentration at 8 h (200 mg, Cohort 8, 200 mg BID of Form B, Day 29, 8.0 h, read-out: Compound I Concentration, Max)?
Answer: 21.7 ng/mL

Question: And the concentration at 8 h (200 mg, Cohort 8, 200 mg BID of Form B, Day 29, 8.0 h, read-out: Compound I Concentration, Mean)?
Answer: 14.6 ng/mL

Question: And the concentration at 8 h (200 mg, Cohort 8, 200 mg BID of Form B, Day 29, 8.0 h, read-out: Compound I Concentration, Min)?
Answer: 7.36 ng/mL

Question: And the concentration at 10 h (200 mg, Cohort 8, 200 mg BID of Form B, Day 29, 10.0 h, read-out: Compound I Concentration, Max)?
Answer: 38.6 ng/mL

Question: What about the concentration at 10 h (200 mg, Cohort 8, 200 mg BID of Form B, Day 29, 10.0 h, read-out: Compound I Concentration, Mean) of the same compound?
Answer: 18.6 ng/mL

Question: What about the concentration at 10 h (200 mg, Cohort 8, 200 mg BID of Form B, Day 29, 10.0 h, read-out: Compound I Concentration, Min) of the same compound?
Answer: 5.61 ng/mL

Question: What about the concentration at 12 h (200 mg, Cohort 8, 200 mg BID of Form B, Day 29, 12.0 h, read-out: Compound I Concentration, Max) of the same compound?
Answer: 40.8 ng/mL

Question: What about the concentration at 12 h (200 mg, Cohort 8, 200 mg BID of Form B, Day 29, 12.0 h, read-out: Compound I Concentration, Mean) of the same compound?
Answer: 19.8 ng/mL

Question: And the concentration at 12 h (200 mg, Cohort 8, 200 mg BID of Form B, Day 29, 12.0 h, read-out: Compound I Concentration, Min)?
Answer: 6.32 ng/mL

Question: And the concentration at 0 h (300 mg, 300 mg QD of Form B, Day 1, 0.0 h, Mean, read-out: Compound I Concentration)?
Answer: 0 ng/mL

Question: And the concentration at 0 h (300 mg, 300 mg QD of Form B, Day 1, 0.0 h, Median, read-out: Compound I Concentration)?
Answer: 0 ng/mL

Question: And the concentration at 1 h (300 mg, 300 mg QD of Form B, Day 1, 1.0 h, Mean, read-out: Compound I Concentration)?
Answer: 22.9 ng/mL

Question: And the concentration at 1 h (300 mg, 300 mg QD of Form B, Day 1, 1.0 h, Median, read-out: Compound I Concentration)?
Answer: 3.73 ng/mL

Question: And the concentration at 2 h (300 mg, 300 mg QD of Form B, Day 1, 2.0 h, Mean, read-out: Compound I Concentration)?
Answer: 16.9 ng/mL

Question: And the concentration at 2 h (300 mg, 300 mg QD of Form B, Day 1, 2.0 h, Median, read-out: Compound I Concentration)?
Answer: 5.96 ng/mL

Question: And the concentration at 3 h (300 mg, 300 mg QD of Form B, Day 1, 3.0 h, Mean, read-out: Compound I Concentration)?
Answer: 27.1 ng/mL

Question: What about the concentration at 3 h (300 mg, 300 mg QD of Form B, Day 1, 3.0 h, Median, read-out: Compound I Concentration) of the same compound?
Answer: 13.4 ng/mL

Question: What about the concentration at 4 h (300 mg, 300 mg QD of Form B, Day 1, 4.0 h, Mean, read-out: Compound I Concentration) of the same compound?
Answer: 32 ng/mL

Question: And the concentration at 4 h (300 mg, 300 mg QD of Form B, Day 1, 4.0 h, Median, read-out: Compound I Concentration)?
Answer: 19.8 ng/mL

Question: What about the concentration at 6 h (300 mg, 300 mg QD of Form B, Day 1, 6.0 h, Mean, read-out: Compound I Concentration) of the same compound?
Answer: 31.6 ng/mL

Question: And the concentration at 6 h (300 mg, 300 mg QD of Form B, Day 1, 6.0 h, Median, read-out: Compound I Concentration)?
Answer: 43.1 ng/mL

Question: What about the concentration at 8 h (300 mg, 300 mg QD of Form B, Day 1, 8.0 h, Mean, read-out: Compound I Concentration) of the same compound?
Answer: 22.7 ng/mL

Question: What about the concentration at 8 h (300 mg, 300 mg QD of Form B, Day 1, 8.0 h, Median, read-out: Compound I Concentration) of the same compound?
Answer: 28.1 ng/mL

Question: And the concentration at 10 h (300 mg, 300 mg QD of Form B, Day 1, 10.0 h, Mean, read-out: Compound I Concentration)?
Answer: 19.9 ng/mL

Question: And the concentration at 10 h (300 mg, 300 mg QD of Form B, Day 1, 10.0 h, Median, read-out: Compound I Concentration)?
Answer: 18.1 ng/mL

Question: What about the concentration at 12 h (300 mg, 300 mg QD of Form B, Day 1, 12.0 h, Mean, read-out: Compound I Concentration) of the same compound?
Answer: 15.5 ng/mL

Question: What about the concentration at 12 h (300 mg, 300 mg QD of Form B, Day 1, 12.0 h, Median, read-out: Compound I Concentration) of the same compound?
Answer: 13.5 ng/mL

Question: What about the concentration at 24 h (300 mg, 300 mg QD of Form B, Day 1, […], Mean, read-out: Compound I Concentration) of the same compound?
Answer: 8.09 ng/mL

Question: And the concentration at 24 h (300 mg, 300 mg QD of Form B, Day 1, […], Median, read-out: Compound I Concentration)?
Answer: 8.48 ng/mL

Question: And the concentration at 0 h (300 mg, 300 mg QD of Form B, Day 29, 0.0 h, Mean, read-out: Compound I Concentration)?
Answer: 13.9 ng/mL

Question: What about the concentration at 0 h (300 mg, 300 mg QD of Form B, Day 29, 0.0 h, Median, read-out: Compound I Concentration) of the same compound?
Answer: 8.24 ng/mL

Question: And the concentration at 1 h (300 mg, 300 mg QD of Form B, Day 29, 1.0 h, Mean, read-out: Compound I Concentration)?
Answer: 16.2 ng/mL
